Numbered stars: 1 amine (or outer) side, 2 acyl side, 3 side chain; on linkers, the order of the positions; unused ones are H or OH. Square brackets hold non-standard residues; d marks the D form. Side chains are listed from the residue outwards. Peptide text beside a SMILES is read from it. * marks the point of attachment. C18 diacid = O=C(O)CCCCCCCCCCCCCCCCC(=O)*; γGlu = O=C(O)[C@H](CCC(=O)[*:2])N[*:1]; AEEA = NCCOCCOCC(=O)O; Aib = CC(C)(N)C(=O)O
Each molecule was assayed against T1, human GLP-1 receptor (Homo sapiens, UniProt P43220) (assay: GLP-1 receptor binding, 125I-GLP-1 displacement SPA on isolated membranes). Settings: displacement of 125I-GLP-1 from membranes; read-out: IC50 GLP-1R.
T1 construct: expressed in transfected cells; host or cells: BHK cells (parent BHKTS13), clone FCW467-12A/KZ10-1, with CRE luciferase
T1 sequence (P43220 24-463): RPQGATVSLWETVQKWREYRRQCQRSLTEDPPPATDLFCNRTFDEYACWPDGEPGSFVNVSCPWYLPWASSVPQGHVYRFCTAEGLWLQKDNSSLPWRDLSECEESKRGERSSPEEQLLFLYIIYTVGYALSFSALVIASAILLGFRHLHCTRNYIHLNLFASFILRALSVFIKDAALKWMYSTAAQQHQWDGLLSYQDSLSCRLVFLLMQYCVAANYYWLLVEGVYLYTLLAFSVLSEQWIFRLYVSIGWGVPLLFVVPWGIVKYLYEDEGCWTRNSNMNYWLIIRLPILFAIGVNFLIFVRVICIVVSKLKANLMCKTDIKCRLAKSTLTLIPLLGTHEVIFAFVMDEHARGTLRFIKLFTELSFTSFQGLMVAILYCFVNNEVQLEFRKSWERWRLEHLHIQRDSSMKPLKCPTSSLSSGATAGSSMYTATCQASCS
Outline: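 Test derivatives, serially diluted, competed with 125I-GLP-1(7-36)NH2 for the human GLP-1 receptor on BHK membranes, read by WGA-bead scintillation proximity after 2 h at 30°C, pH 7.4 HEPES/EGTA/MgCl2 buffer. Final serum albumin was either ≤0.001% or 2.0%; IC50 from non-linear fit.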
An IC50 of 0.9 nM was found for `CC(C)C[C@H](NC(=O)[C@H](Cc1ccc(O)cc1)NC(=O)[C@H](CCCCN)NC(=O)[C@H](CO)NC(=O)[C@H](CC(C)C)NC(=O)[C@H](CC(=O)O)NC(=O)[C@H](CO)NC(=O)[C@@H](NC(=O)[C@H](Cc1ccccc1)NC(=O)[C@@H](NC(=O)CNC(=O)[C@H](Cc1c[nH]cn1)NC(=O)C(C)(C)NC(=O)[C@@H](N)Cc1c[nH]cn1)[C@@H](C)O)[C@@H](C)O)C(=O)N[C@@H](CCC(=O)O)C(=O)N[C@@H](CO)C(=O)N[C@@H](CCCCN)C(=O)N[C@@H](CCCNC(=N)N)C(=O)N[C@@H](C)C(=O)N[C@@H](CCCNC(=N)N)C(=O)N[C@@H](CCC(=O)O)C(=O)N[C@@H](Cc1ccccc1)C(=O)N[C@H](C(=O)N[C@@H](CCC(N)=O)C(=O)N[C@@H](Cc1c[nH]c2ccccc12)C(=O)N[C@@H](CC(C)C)C(=O)N[C@@H](CC(C)C)C(=O)N[C@@H](CCCCNC(=O)CC[C@H](NC(=O)CC[C@H](NC(=O)COCCOCCNC(=O)COCCOCCNC(=O)CC[C@H](NC(=O)CCCCCCCCCCCCCCCCC(=O)O)C(=O)O)C(=O)O)C(=O)O)C(=O)N[C@H](C(N)=O)[C@@H](C)O)C(C)C` [Example 27, N^ε28-[(4S)-4-carboxy-4-[[(4S)-4-carboxy-4-[[2-[2-[2-[[2-[2-[2-[[(4S)-4-carboxy-4-(17-carboxyheptadecanoylamino)butanoyl]amino]ethoxy]ethoxy]acetyl]amino]ethoxy]ethoxy]acetyl]amino]butanoyl]amino]butanoyl]-[Aib2,His3,Leu10,Glu15,Lys17,Arg20,Glu21,Leu27, Lys28]-Glucagon amide] (H-H[Aib]HGTFTSDLSKYLESKRAREFVQWLLK([γGlu-γGlu-AEEA-AEEA-γGlu-C18 diacid])T-NH2; N-terminus assumed) in this work. An IC50 of 1.4 nM was found for `CC(C)C[C@H](NC(=O)[C@H](Cc1ccc(O)cc1)NC(=O)[C@H](CCCCN)NC(=O)[C@H](CO)NC(=O)[C@H](CC(C)C)NC(=O)[C@H](CC(=O)O)NC(=O)[C@H](CO)NC(=O)[C@@H](NC(=O)[C@H](Cc1ccccc1)NC(=O)[C@@H](NC(=O)CNC(=O)[C@H](Cc1c[nH]cn1)NC(=O)C(C)(C)NC(=O)[C@@H](N)Cc1c[nH]cn1)[C@@H](C)O)[C@@H](C)O)C(=O)N[C@@H](CCC(=O)O)C(=O)N[C@@H](CO)C(=O)N[C@@H](CCCNC(=N)N)C(=O)N[C@@H](CCCNC(=N)N)C(=O)N[C@@H](C)C(=O)N[C@@H](CCCNC(=N)N)C(=O)N[C@@H](CCC(=O)O)C(=O)N[C@@H](Cc1ccccc1)C(=O)N[C@H](C(=O)N[C@@H](CCC(N)=O)C(=O)N[C@@H](Cc1c[nH]c2ccccc12)C(=O)N[C@@H](CC(C)C)C(=O)N[C@@H](CC(C)C)C(=O)N[C@@H](CCCCNC(=O)CC[C@H](NC(=O)COCCOCCNC(=O)COCCOCCNC(=O)CC[C@H](NC(=O)CC[C@H](NC(=O)CCCCCCCCCCCCCCCCC(=O)O)C(=O)O)C(=O)O)C(=O)O)C(=O)N[C@H](C(N)=O)[C@@H](C)O)C(C)C` [Example 30, N^ε28-[(4S)-4-carboxy-4-[[2-[2-[2-[[2-[2-[2-[[(4S)-4-carboxy-4-[[(4S)-4-carboxy-4-(17-carboxyheptadecanoylamino)butanoyl]amino]butanoyl]amino]ethoxy]ethoxy]acetyl]amino]ethoxy]ethoxy]acetyl]amino]butanoyl]-[Aib2,His3,Leu10,Glu15,Arg20,Glu21,Leu27,Lys28]-Glucagon amide] (H-H[Aib]HGTFTSDLSKYLESRRAREFVQWLLK([γGlu-AEEA-AEEA-γGlu-γGlu-C18 diacid])T-NH2; N-terminus assumed) in this work. An IC50 of 1.5 nM was found for `CC(C)C[C@H](NC(=O)[C@H](Cc1c[nH]c2ccccc12)NC(=O)[C@H](C)NC(=O)[C@@H](NC(=O)[C@H](Cc1ccccc1)NC(=O)[C@H](CCC(=O)O)NC(=O)[C@H](CCCNC(=N)N)NC(=O)[C@H](C)NC(=O)[C@H](CCCNC(=N)N)NC(=O)[C@H](CCCNC(=N)N)NC(=O)[C@H](CO)NC(=O)[C@H](CCC(=O)O)NC(=O)[C@H](CC(C)C)NC(=O)[C@H](Cc1ccc(O)cc1)NC(=O)[C@H](CCCCN)NC(=O)[C@H](CO)NC(=O)[C@H](CC(C)C)NC(=O)[C@H](CC(=O)O)NC(=O)[C@H](CO)NC(=O)[C@@H](NC(=O)[C@H](Cc1ccccc1)NC(=O)[C@@H](NC(=O)CNC(=O)[C@H](Cc1c[nH]cn1)NC(=O)C(C)(C)NC(=O)[C@@H](N)Cc1c[nH]cn1)[C@@H](C)O)[C@@H](C)O)C(C)C)C(=O)N[C@@H](CC(C)C)C(=O)N[C@@H](CCCCNC(=O)CC[C@H](NC(=O)COCCOCCNC(=O)COCCOCCNC(=O)CC[C@H](NC(=O)CC[C@H](NC(=O)CCCCCCCCCCCCCCCCC(=O)O)C(=O)O)C(=O)O)C(=O)O)C(=O)N[C@H](C(N)=O)[C@@H](C)O` [Example 31, N^ε28-[(4S)-4-carboxy-4-[[2-[2-[2-[[2-[2-[2-[[(4S)-4-carboxy-4-[[(4S)-4-carboxy-4-(17-carboxyheptadecanoylamino)butanoyl]amino]butanoyl]amino]ethoxy]ethoxy]acetyl]amino]ethoxy]ethoxy]acetyl]amino]butanoyl]-[Aib2,His3,Leu10,Glu15,Arg20,Glu21,Ala24,Leu27, Lys28]-Glucagon amide] (H-H[Aib]HGTFTSDLSKYLESRRAREFVAWLLK([γGlu-AEEA-AEEA-γGlu-γGlu-C18 diacid])T-NH2; N-terminus assumed) in this work. An IC50 of 0.6 nM was found for `CC(C)C[C@H](NC(=O)[C@H](Cc1ccc(O)cc1)NC(=O)[C@H](CCCCN)NC(=O)[C@H](CO)NC(=O)[C@H](CC(C)C)NC(=O)[C@H](CC(=O)O)NC(=O)[C@H](CO)NC(=O)[C@@H](NC(=O)[C@H](Cc1ccccc1)NC(=O)[C@@H](NC(=O)CNC(=O)[C@H](Cc1c[nH]cn1)NC(=O)C(C)(C)NC(=O)[C@@H](N)Cc1c[nH]cn1)[C@@H](C)O)[C@@H](C)O)C(=O)N[C@@H](CCC(=O)O)C(=O)N[C@@H](CO)C(=O)N[C@@H](CCCNC(=N)N)C(=O)N[C@@H](CCCNC(=N)N)C(=O)N[C@@H](C)C(=O)N[C@@H](CCCNC(=N)N)C(=O)N[C@@H](CCC(=O)O)C(=O)N[C@@H](Cc1ccccc1)C(=O)N[C@H](C(=O)N[C@@H](CCC(N)=O)C(=O)N[C@@H](Cc1c[nH]c2ccccc12)C(=O)N[C@@H](CC(C)C)C(=O)N[C@@H](CC(C)C)C(=O)N[C@@H](CCCCNC(=O)CC[C@H](NC(=O)CC[C@H](NC(=O)COCCOCCNC(=O)COCCOCCNC(=O)CC[C@H](NC(=O)CCCCCCCCCCCCCCCCC(=O)O)C(=O)O)C(=O)O)C(=O)O)C(=O)N[C@H](C(N)=O)[C@@H](C)O)C(C)C` [Example 33, N^ε28-[(4S)-4-carboxy-4-[[(4S)-4-carboxy-4-[[2-[2-[2-[[2-[2-[2-[[(4S)-4-carboxy-4-(17-carboxyheptadecanoylamino)butanoyl]amino]ethoxy]ethoxy]acetyl]amino]ethoxy]ethoxy]acetyl]amino]butanoyl]amino]butanoyl]-[Aib2,His3,Leu10,Glu15,Arg20,Glu21,Leu27,Lys28]-Glucagon amide] (H-H[Aib]HGTFTSDLSKYLESRRAREFVQWLLK([γGlu-γGlu-AEEA-AEEA-γGlu-C18 diacid])T-NH2; N-terminus assumed) in this work. An IC50 of 0.2 nM was found for `CC(C)C[C@H](NC(=O)[C@H](Cc1ccc(O)cc1)NC(=O)[C@H](CCCCN)NC(=O)[C@H](CO)NC(=O)[C@H](CC(C)C)NC(=O)[C@H](CC(=O)O)NC(=O)[C@H](CO)NC(=O)[C@@H](NC(=O)[C@H](Cc1ccccc1)NC(=O)[C@@H](NC(=O)CNC(=O)[C@H](Cc1c[nH]cn1)NC(=O)C(C)(C)NC(=O)[C@@H](N)Cc1c[nH]cn1)[C@@H](C)O)[C@@H](C)O)C(=O)N[C@@H](CCC(=O)O)C(=O)N[C@@H](CO)C(=O)N[C@@H](CCCCN)C(=O)N[C@@H](CCCNC(=N)N)C(=O)N[C@@H](C)C(=O)N[C@@H](CCCNC(=N)N)C(=O)N[C@@H](CCC(=O)O)C(=O)N[C@@H](Cc1ccccc1)C(=O)N[C@H](C(=O)N[C@@H](CCC(N)=O)C(=O)N[C@@H](Cc1c[nH]c2ccccc12)C(=O)N[C@@H](CC(C)C)C(=O)N[C@@H](CC(C)C)C(=O)N[C@@H](CCCCNC(=O)CC[C@H](NC(=O)CC[C@H](NC(=O)CC[C@H](NC(=O)CCCCCCCCCCCCCCCCC(=O)O)C(=O)O)C(=O)O)C(=O)O)C(=O)N[C@H](C(N)=O)[C@@H](C)O)C(C)C` [Example 34, N^ε28-[(4S)-4-carboxy-4-[[(4S)-4-carboxy-4-[[(4S)-4-carboxy-4-(17-carboxyheptadecanoylamino)butanoyl]amino]butanoyl]amino]butanoyl]-[Aib2,His3,Leu10,Glu15,Lys17,Arg20,Glu21,Leu27,Lys28]-Glucagon amide] (H-H[Aib]HGTFTSDLSKYLESKRAREFVQWLLK([γGlu-γGlu-γGlu-C18 diacid])T-NH2; N-terminus assumed) in this work.

— patent US9474790B2, “Stable, protracted GLP-1/glucagon receptor co-agonists for medical use” (Novo Nordisk A/S, priority 2013, dated 2016)
